The source of these data is patent US20210346359A1, “Use of CFTR Modulators For Treating Cerebrovascular Conditions” (Qanatpharma AG, priority 2018, published 2021).

The structures appear in SMILES notation. “Also recorded” adds a separate entry of the source.

Assay [1] concerns human CFTR mRNA. Briefly: Quantitative PCR of CFTR mRNA in baby hamster kidney fibroblast cells stably expressing human CFTR. The assay is classed as cell-based. Conditions: 6 μmol/L, 24 h. Here is the method: Procedures for isolating and culturing mesenteric artery smooth muscle cells were carried out as described in (10). Briefly, mesenteric artery segments were isolated, cut into small pieces and digested with trypsin, collagenase and elastase. The resulting cell suspension was washed several times in phosphate-buffered saline and plated in Dulbecco's Modified Eagle Medium (DMEM) culture media containing 10% fetal bovine serum and 1% penicillin-streptomycin. Cell cultures were maintained at 37° C. with 5% CO2 and split at 106 cells seeding density. […]
Resistance artery RNA was isolated with Norgen Biotek (Thorold, Canada) “Total RNA Purification Micro” spin columns, using the proteinase K digestion and DNA removal procedures, as directed by the manufacturer's instructions. The eluted RNA was quantified with an Agilent Technologies RNA 6000 Pico Kit and Bioanalyzer; the analysis confirmed that high-quality RNA was retrieved from the artery tissue samples (RNA Integrity [RIN]: Cerebral=8.4±0.1, n=5; Cremaster=8.2±0.4, n=6). […]
Quantitative FOR was performed using an Applied Biosystems ViiA™ 7 Real Time FCR system and Power SYBR® Green FCR master mix (both distributed by lnvitrogen Life Technologies). […] Gene targets were assessed in triplicate, using 1 ng of cDNA generated from the reverse transcription; negative controls received water. […]

In assay [2] the test system is olfactory cerebral arteries. Briefly: Myogenic tone of isolated olfactory cerebral arteries after in vivo treatment. Set-up: species or system mouse. Here is the method: Induction of Subarachnoid Hemorrhage: A well-characterized model of experimental SAH (6) was used. Briefly, each mouse was anaesthetized (isoflurane) and its head was fixed in a stereotactic frame: a 7 mm incision was made along the midline of the anterior scalp and 0.9 mm hole drilled into the skull 4.5 mm anterior to the bregma. A spinal needle was advanced to the chiasmatic cistern: 80 μl of arterial blood was injected into the intracranial space over 10 seconds. […] Following injection, the scalp incision was closed. Buprenorphine (0.05 mg/kg; 0.5-1.0 ml volume) was administered twice/day (initiated immediately following the SAH surgical procedure). Sham-operated animals underwent an identical surgical procedure, with sterile saline injected instead of blood. Olfactory cerebral arteries were isolated at 2 days post-SAH induction.
Isolation and functional assessment of resistance arteries: Mouse olfactory (a first branch of the anterior cerebral artery) and PCAs were carefully dissected, cannulated onto micropipettes, stretched to their in vivo lengths and pressurized to 45 mmHg, as previously described (3,6); mouse skeletal muscle resistance arteries were dissected from the cremaster muscle, cannulated and pressurized to 60 mmHg. All functional experiments were conducted in 3-morpholinopropanesulfonic acid (MOPS) buffered saline at 37° C. with no perfusion. […]
Myogenic responses were elicited by step-wise 20 mmHg increases in transmural pressure from 20 mmHg to 80 mmHg (olfactory arteries) or 100 mmHg (posterior cerebral arteries and cremaster skeletal muscle resistance arteries). At each pressure step, vessel diameter (diaactive) was measured once a steady state was reached (5 min). Vessels requiring treatment (e.g., CFTR(inh)-172) were incubated with the reagent in MOPS for 30 min and myogenic responses were then assessed in the presence of that reagent. Following completion of all diaactive measurements, MOPS buffer was replaced with a Ca^2+-free version and maximal passive diameter (diamax) was recorded at each pressure step.
Myogenic tone was calculated as the percent constriction in relation to the maximal diameter at each respective transmural pressure: tone (% of diamax)=[(diamax−diaactive)/diamax]×100, where diaactive is the vessel diameter in MOPS containing Ca^2+ and diamax is the diameter in Ca^2+-free MOPS. Analyses of vasomotor responses to phenylephrine used the same calculation, only in this case, diaactive represents the vessel diameter at steady state following application of the given agent and diamax represents the maximal diameter measured under Ca^2+-free conditions.

Setting [3] is: arteries from SAH mice, in vivo 3 mg/kg daily for 2 days.

Consider `O=C(Nc1ncc(C(c2ccccc2Cl)N2CCC(O)C2)s1)C1(c2ccc3c(c2)OCO3)CC1` (stereo not drawn) [C18, 1-(benzo[d][1,3]dioxol-5-yl)-N-(5-((2-chlorophenyl)(3-hydroxypyrrolidin-1-yl)methyl)thiazol-2-yl)cyclopropanecarboxamide], for which the “CFTR mRNA expression” value in assay [1] is reported as “no affect; also recorded: does not influence”. The “olfactory cerebral artery myogenic tone” value in assay [2] (arteries from CFTR knockout mice, in vivo 3 mg/kg daily for 2 days) was “not susceptible; also recorded: not observed”; in assay [2] (setting [3]), “normalizes; also recorded: reduces”; in assay [2] (arteries from sham-operated mice, 3 mg/kg i.p. daily for 2 days, 3 mg/kg), “does not affect; also recorded: does not alter”.

With `Cc1ccc(NC(=O)C2(c3ccc4c(c3)OC(F)(F)O4)CC2)nc1-c1cccc(C(=O)O)c1` [lumacaftor], the “CFTR mRNA expression” value in assay [1] was “unaffected; also recorded: does not influence”. In addition, in assay [2] (setting [3]), the “olfactory cerebral artery myogenic tone” value is recorded as “normalizes; also recorded: reduces”.
